From publication PMC12395054, “Targeting MDM2 homodimer and heterodimer disruption with DRx-098D in TP53 wild-type and mutant cancer cells” (Molecular Therapy Oncology, 2025)

Columns and labels:
MDM2:MDMX heterodimer = target: T1, MDM2:MDMX heterodimer (Homo sapiens, UniProt Q00987); assay: Proximity ligation assay, endogenous FL-MDM2 and MDMX in A549; format: cell-based; settings: A549 (TP53 WT), 10% FBS
T1 construct: PLA of endogenous FL-MDM2 and MDMX in A549; endogenous in cells; host or cells: A549

HCT116 TP53 null cells = assay: Cell viability (CellTiter Glo 2.0); format: cell-based, human; settings: 24 h, 2% FBS
Description: Immunocytochemistry. HCT116 TP53 null cells were seeded at 0.5 x 10^5 cells per well of a 12-well plate containing a sterilised 0.13-0.17mm glass coverslip in complete DMEM and incubated overnight. Cells were fixed in 4% paraformaldehyde (Sigma) for 15 minutes at room temperature, then permeabilised with 0.1% triton X100 (Sigma) for 4 minutes at room temperature. Cells were then blocked in 10% donkey serum, 1% BSA in PBS for 1 Hr at room temperature. Following blocking, cells were co-incubated in MDM2 (mouse) and MDMX (rabbit) primary antibodies overnight at 4 °C. Subsequently, secondary Alexa Fluor antibodies were co-incubated for a further 1 Hr at room temperature. […]
RTCA xCELLigence. Real-time cellular analysis (RTCA) of A549 cells was measured utilising the label-free cellular growth xCELLigence platform (Roche Applied Science, Agilent Technologies), where-by cellular impedance was leveraged as an indirect indicator of relative cell growth (i.e., cell index; CI). […] Relative growth (Δ growth) of treated A549 cells was assessed as a % difference of vehicle after 72 Hrs post-treatment (i.e., 100% relative cell growth at experiment endpoint).
Cell Viability. For MOLM-13, THP-1 (Fig. 3A), HCT116 TP53 wild-type, HCT116 TP53 null (Fig. 3D), HEK293, and IMR-90 (Fig. 3E) cells, relative cell viability was assessed via CellTiter Glo 2.0 Cell Viability Assay (Promega: […]

T1 sequence (Q00987 whole entry, one chain of several): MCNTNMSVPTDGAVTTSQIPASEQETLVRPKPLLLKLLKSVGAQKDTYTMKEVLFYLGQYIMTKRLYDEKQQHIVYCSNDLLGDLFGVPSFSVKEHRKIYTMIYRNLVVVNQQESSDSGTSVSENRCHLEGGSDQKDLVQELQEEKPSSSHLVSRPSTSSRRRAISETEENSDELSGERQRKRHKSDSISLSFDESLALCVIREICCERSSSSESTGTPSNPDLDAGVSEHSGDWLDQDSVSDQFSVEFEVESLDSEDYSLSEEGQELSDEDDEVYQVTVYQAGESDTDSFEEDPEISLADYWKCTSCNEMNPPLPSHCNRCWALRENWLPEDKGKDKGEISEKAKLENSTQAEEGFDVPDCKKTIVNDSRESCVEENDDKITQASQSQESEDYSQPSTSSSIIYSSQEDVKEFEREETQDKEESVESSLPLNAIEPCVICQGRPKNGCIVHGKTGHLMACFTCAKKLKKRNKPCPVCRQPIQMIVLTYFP

Endogenous MDM2 heterodimerization, PLA (MDM2:MDMX heterodimer): did not affect MDM2 heterodimerization
SMILES: COc1cc(C(=O)O)ccc1NC(=O)[C@@H]1N[C@@H](CC(C)(C)C)[C@](C#N)(c2ccc(Cl)cc2F)[C@H]1c1cccc(Cl)c1F [Idasanutlin]
Relative cell viability / anti-proliferative activity (in words) (HCT116 TP53 null cells): no anti-proliferative activity
